These results are taken from PubChem BioAssay (NCI).

Molecules are shown by their SMILES.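 48-hour exposure; five concentrations; linearly interpolated endpoints. Here, GI50 denotes the concentration required for 50% inhibition of growth. TGI denotes the concentration required for complete inhibition of growth.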

Among the test systems are A549 NSCLC; COLO 205 colon; HCT-15 colon; MDA-MB-435; MOLT-4 leukemia; NCI/ADR-RES ovarian; OVCAR-5 ovarian.
Holding throughout (assay): NCI anticancer screen, dose series, 48 h

`COc1ccc(-c2cc(-c3ccc(OC)cc3)nc(NCCCNc3ccnc4cc(Cl)ccc34)n2)cc1`: the GI50 in the assay with A549 NSCLC was 1.81 µM; in the assay with COLO 205 colon, 1.72 µM; in the assay on HCT-15 colon, 1.68 µM; with MDA-MB-435, 1.73 µM; in the assay on MOLT-4 leukemia, 1.84 µM; with NCI/ADR-RES ovarian, 1.62 µM. For the same molecule, the GI50 in the assay on OVCAR-5 ovarian is 1.67 µM. The TGI was 3.66 µM in the assay with A549 NSCLC; 3.58 µM in the assay on COLO 205 colon; 3.45 µM in the assay with HCT-15 colon; 3.18 µM in the assay with MDA-MB-435; 6.09 µM with MOLT-4 leukemia; 3.28 µM with NCI/ADR-RES ovarian. In the assay with OVCAR-5 ovarian, this molecule yielded a TGI of 3.14 µM.
In the case of `Fc1ccc(-c2ncn(CCCN3CCOCC3)c2-c2ccncc2)cc1`, the GI50 in the assay on A549 NSCLC, in the assay with COLO 205 colon, with HCT-15 colon, in the assay on MDA-MB-435, with MOLT-4 leukemia and in the assay on NCI/ADR-RES ovarian was more than 25 µM each time. For the same molecule, the GI50 with OVCAR-5 ovarian is more than 25 µM. The TGI with A549 NSCLC, in the assay on COLO 205 colon, in the assay on HCT-15 colon, with MDA-MB-435, in the assay with MOLT-4 leukemia and in the assay on NCI/ADR-RES ovarian was more than 25 µM throughout. The same molecule yielded a TGI in the assay on OVCAR-5 ovarian of more than 25 µM.
For `CCOC(=O)Nc1ccc2c(c1)C(=O)N(CC)c1ccccc1O2`, the GI50 in the assay with A549 NSCLC was 0.145 µM; with COLO 205 colon, 0.0819 µM; with HCT-15 colon, 0.0746 µM; in the assay with MDA-MB-435, 0.0311 µM; with MOLT-4 leukemia, 0.125 µM; in the assay on NCI/ADR-RES ovarian it was 0.124 µM. For the same molecule, the TGI with A549 NSCLC is more than 100 µM; in the assay on COLO 205 colon, 0.617 µM; in the assay with HCT-15 colon, more than 100 µM; in the assay with MDA-MB-435, 0.11 µM; in the assay with MOLT-4 leukemia, more than 100 µM; in the assay on NCI/ADR-RES ovarian, more than 100 µM. In the assay on OVCAR-5 ovarian, this molecule had a TGI of more than 100 µM.
Turning to `Cc1ccc(-c2nc(/C=N/Nc3cc(C)nc4ccc(Br)cc34)c(C)o2)cc1`, the GI50 is 1.82 µM with A549 NSCLC; 2.03 µM in the assay on COLO 205 colon; 1.86 µM with HCT-15 colon; 1.72 µM in the assay on MDA-MB-435; 2.32 µM in the assay with MOLT-4 leukemia; 1.99 µM with NCI/ADR-RES ovarian. For the same molecule, the GI50 in the assay with OVCAR-5 ovarian is 1.86 µM. The TGI with A549 NSCLC stood at 3.52 µM; in the assay on COLO 205 colon it was 3.97 µM; with HCT-15 colon, 3.64 µM; in the assay on MDA-MB-435, 3.12 µM; with MOLT-4 leukemia, 5.13 µM; in the assay on NCI/ADR-RES ovarian it was 4.46 µM. In the assay with OVCAR-5 ovarian, this molecule yielded a TGI of 3.36 µM.
Take `C#Cc1cccc(NC(=O)c2cccc(NC(=O)CCl)c2)c1`: the GI50 is 21.6 µM in the assay on A549 NSCLC; 22 µM with COLO 205 colon; 5.2 µM in the assay on HCT-15 colon; 32.3 µM in the assay on MDA-MB-435; 6.71 µM with MOLT-4 leukemia; 17.3 µM with NCI/ADR-RES ovarian. Besides, the GI50 in the assay with OVCAR-5 ovarian was 15.8 µM. Besides, the TGI is more than 82.5 µM in the assay on A549 NSCLC; more than 82.5 µM in the assay with COLO 205 colon; 19.1 µM in the assay with HCT-15 colon; more than 82.5 µM in the assay with MDA-MB-435; 61.2 µM with MOLT-4 leukemia; 53.1 µM in the assay on NCI/ADR-RES ovarian. For the same molecule, the TGI in the assay with OVCAR-5 ovarian was 40.8 µM.
Turning to `Cc1cc(=O)oc2cc3oc(N(C)c4ccccc4)nc(=O)c3cc12`, the TGI with A549 NSCLC, with COLO 205 colon, in the assay with HCT-15 colon, in the assay with MDA-MB-435, in the assay on MOLT-4 leukemia and with NCI/ADR-RES ovarian was more than 100 µM in each case. For the same molecule, the TGI in the assay with OVCAR-5 ovarian was more than 100 µM.
Regarding `O=c1oc2ccc(Cl)cc2c(=O)n1-c1ccc(F)cc1F`, the GI50 with A549 NSCLC was 2.08 µM; in the assay with COLO 205 colon, 7.92 µM; with HCT-15 colon, 2.32 µM; in the assay with MDA-MB-435, 1.64 µM; with MOLT-4 leukemia, 2.33 µM; in the assay with NCI/ADR-RES ovarian, 2.63 µM. For the same molecule, the GI50 in the assay on OVCAR-5 ovarian is 3.43 µM. Moreover, the TGI is more than 100 µM in the assay on A549 NSCLC; 23.9 µM in the assay with COLO 205 colon; 13.5 µM with HCT-15 colon; 7.73 µM in the assay with MDA-MB-435; 5.59 µM in the assay with MOLT-4 leukemia; 9.5 µM in the assay on NCI/ADR-RES ovarian. In the assay on OVCAR-5 ovarian, this molecule came in with a TGI of 97.5 µM.
For `COc1c(C)c(OC)c(C(=O)CC(C)C)c(OC)c1C`, the TGI in the assay on A549 NSCLC, in the assay on COLO 205 colon, in the assay on HCT-15 colon, in the assay on MDA-MB-435, in the assay with MOLT-4 leukemia and with NCI/ADR-RES ovarian was more than 100 µM each time. In addition, the TGI in the assay on OVCAR-5 ovarian is more than 100 µM.
For `O=C(Nc1n[nH]c2nc(-c3ccc(O)cc3)c(Br)cc12)C1CC1`, the GI50 was 4.98 µM in the assay with A549 NSCLC; 3.18 µM with COLO 205 colon; 3.77 µM in the assay with HCT-15 colon; 2.71 µM in the assay with MDA-MB-435; 5.13 µM in the assay on MOLT-4 leukemia; 6.49 µM in the assay on NCI/ADR-RES ovarian. For the same molecule, the GI50 in the assay on OVCAR-5 ovarian was 7.46 µM. Further, the TGI with A549 NSCLC is more than 21.7 µM; in the assay on COLO 205 colon it was 8.76 µM; in the assay with HCT-15 colon it was more than 23.2 µM; with MDA-MB-435, 7.29 µM; in the assay with MOLT-4 leukemia, more than 25 µM; with NCI/ADR-RES ovarian it was more than 25 µM. This molecule also displayed a TGI with OVCAR-5 ovarian of 21.7 µM.
In the case of `CC(C)=Cc1cccc2[nH]c(O)c(N=Nc3ccc(S(N)(=O)=O)cc3)c12`, the GI50 was 4.1 µM in the assay on A549 NSCLC; more than 9.93 µM in the assay with COLO 205 colon; 4.32 µM in the assay with HCT-15 colon; more than 21.4 µM with MDA-MB-435; 1.74 µM in the assay on MOLT-4 leukemia; more than 23.4 µM in the assay on NCI/ADR-RES ovarian. Besides, the GI50 in the assay on OVCAR-5 ovarian is more than 25 µM. Also, the TGI in the assay with A549 NSCLC, with COLO 205 colon, with HCT-15 colon, with MDA-MB-435, in the assay with MOLT-4 leukemia and in the assay on NCI/ADR-RES ovarian was more than 25 µM in each case. The same molecule had a TGI in the assay with OVCAR-5 ovarian of more than 25 µM.
Consider `O=S(=O)(O)n1ccnc1` (tested in a mixture with another compound), for which the TGI in the assay with A549 NSCLC, with COLO 205 colon, in the assay with HCT-15 colon, with MDA-MB-435, in the assay with MOLT-4 leukemia and in the assay on NCI/ADR-RES ovarian was more than 100 µM throughout. The same molecule showed a TGI in the assay with OVCAR-5 ovarian of more than 100 µM.
